Assay [1] concerns Plasmodium falciparum. Briefly: Antiplasmodial activity against chloroquine-sensitive Plasmodium falciparum D10. The format is functional, organism-based.
Assay [2] concerns Plasmodium falciparum. The experiment in a line: Antiplasmodial activity against chloroquine-sensitive Plasmodium falciparum 3D7. In kind it is functional, organism-based.
In assay [3] the test system is Plasmodium falciparum. Briefly: Antiplasmodial activity against chloroquine-resistant Plasmodium falciparum K1. The format is functional, organism-based.
The subject of assay [4] is Plasmodium falciparum. Briefly: Antiplasmodial activity against chloroquine-resistant Plasmodium falciparum W2. The format is functional, organism-based.
For the next assay, the system named is Cryptococcus neoformans. Briefly: Antifungal activity against Cryptococcus neoformans. The format is functional.
Assay [5] has as its system Aspergillus fumigatus. The experiment in a line: Antifungal activity against Aspergillus fumigatus. In kind it is functional.
Another assay relates to Candida albicans. Briefly: Antifungal activity against Candida albicans. In kind it is functional.
Another assay relates to Candida parapsilosis. The experiment in a line: Antifungal activity against Candida parapsilosis ATCC 22019. The format is functional. The note with it: Lodderomyces parapsilosis.
In a further assay the test system is Aspergillus flavus. Briefly: Antifungal activity against Aspergillus flavus ATCC 204304. In kind it is functional.
For another assay, the system named is Pichia kudriavzevii. The experiment in a line: Antifungal activity against Candida krusei ATCC 6258. The format is functional.
Assay [6] relates to Aspergillus fumigatus. Briefly: Antifungal activity against itraconazole resistant Aspergillus fumigatus. The format is functional.
The subject of a further assay is Daudi. The experiment in a line: Cytotoxicity against human Daudi cell line. The format is cell-based.
Another assay has as its system KB. The experiment in a line: Cytotoxicity against human KB cell line. The format is cell-based.
A short description of assay [7]: Cytotoxicity against human lymphocytes. The note with it: Lymphocyte. In kind it is cell-based.

≈ marks a conversion by molar mass, not a printed value.

As for `Clc1ccc(C(c2ccccc2)(c2ccc(CN3CCCC3)cc2)N2CCCC2)cc1` (racemic), the IC50 (as a rule, the midpoint of a concentration-inhibition curve) in the assay with Plasmodium falciparum [1] was found to be 4810 nM; in the assay with Plasmodium falciparum [2], 940 nM; in the assay with Plasmodium falciparum [3] it was 1990 nM; in the assay on Plasmodium falciparum [4], 2570 nM.
As for `Clc1ccc(C(c2ccc(CN3CCCC3)cc2)n2ccnc2)cc1` (racemic), the IC50 in the assay with Plasmodium falciparum [1] was found to be 1660 nM; in the assay with Plasmodium falciparum [2], 310 nM; with Plasmodium falciparum [3] it was 170 nM; with Plasmodium falciparum [4] it was 1130 nM. The MIC in the assay with Cryptococcus neoformans, in the assay on Aspergillus fumigatus [5], against Candida albicans, against Candida parapsilosis, against Aspergillus flavus and in the assay with Pichia kudriavzevii was over 32 µg/mL throughout.
`Clc1ccccc1C(c1ccccc1)(c1ccccc1)n1ccnc1` [CLOTRIMAZOLE]: the MIC (usually the least concentration at which growth counts as inhibited) against Aspergillus fumigatus [6] was 4 µg/mL (≈ 11.6 µM); against Cryptococcus neoformans, 2 µg/mL (≈ 5.8 µM); against Aspergillus fumigatus [5], 4 µg/mL (≈ 11.6 µM); with Candida albicans, 0.03 µg/mL (≈ 0.087 µM); in the assay on Candida parapsilosis it was 2 µg/mL (≈ 5.8 µM); with Aspergillus flavus, 4 µg/mL (≈ 11.6 µM). This compound registered an MIC against Pichia kudriavzevii of 2 µg/mL (≈ 5.8 µM).
`Clc1ccc(C(c2ccccc2)(c2ccc(CN3CCCC3)cc2)n2cncn2)cc1` (racemic): the IC50 with Plasmodium falciparum [1] came to 6920 nM; in the assay on Plasmodium falciparum [2], 8910 nM; with Plasmodium falciparum [3] it was 2150 nM; with Plasmodium falciparum [4], 3830 nM.
As to `COc1ccc(C(c2ccccc2)(c2ccc(CN3CCCC3)cc2)n2ccnc2)cc1` (racemic), the IC50 with Plasmodium falciparum [1] came to 2040 nM; in the assay on Plasmodium falciparum [2], 8130 nM; in the assay with Plasmodium falciparum [3] it was 5930 nM; in the assay on Plasmodium falciparum [4], 1840 nM.
`CCN(CC)CCCNCC(c1ccccc1Cl)n1ccnc1` (racemic): the IC50 in the assay with Plasmodium falciparum [1] was found to be 6410 nM; with Plasmodium falciparum [2], 1900 nM; in the assay on Plasmodium falciparum [3], 3080 nM; in the assay on Plasmodium falciparum [4], 4460 nM.
Consider `Clc1ccccc1C(c1ccc(CN2CCCC2)cc1)n1ccnc1` (racemic), for which the IC50 with Plasmodium falciparum [1] was 2180 nM; in the assay with Plasmodium falciparum [2] it was 11 nM; in the assay with Plasmodium falciparum [3], 110 nM; with Plasmodium falciparum [4], 1700 nM. Also, the MIC against Cryptococcus neoformans, with Aspergillus fumigatus [5], against Candida albicans, against Candida parapsilosis, against Aspergillus flavus and with Pichia kudriavzevii was over 32 µg/mL each time.
For `N#CC(c1ccccc1)(c1ccc(Cl)cc1)c1ccc(CN2CCCC2)cc1` (racemic), the IC50 in the assay on Plasmodium falciparum [2] is 5070 nM; in the assay with Plasmodium falciparum [3], 2640 nM.
Take `OC(c1ccccc1)(c1ccc(Cl)cc1)c1ccc(CN2CCCC2)cc1` (racemic): the 50% inhibitory concentration (IC50) with Plasmodium falciparum [1] is 8300 nM; with Plasmodium falciparum [2], over 10000 nM; in the assay on Plasmodium falciparum [3], 2170 nM.
For `Clc1ccccc1C(CNCN1CCCC1)n1ccnc1` (racemic), the IC50 with Plasmodium falciparum [1] turned out to be 9430 nM; with Plasmodium falciparum [2], 2610 nM; in the assay on Plasmodium falciparum [3], 920 nM; with Plasmodium falciparum [4], 3050 nM.
As to `Clc1ccc(C(c2ccccc2)(c2ccc(CN3CCCC3)cc2)n2ccnc2)cc1` (racemic), the MIC with Cryptococcus neoformans is over 32 µg/mL; against Aspergillus fumigatus [5], over 32 µg/mL; in the assay with Candida albicans, 32 µg/mL (≈ 74.8 µM); in the assay with Candida parapsilosis, 32 µg/mL (≈ 74.8 µM); in the assay with Aspergillus flavus it was over 32 µg/mL; against Pichia kudriavzevii, 16 µg/mL (≈ 37.4 µM). Further, the values for the IC50 (with Daudi; in the assay with KB; in assay [7]) were 58000 nM, 70000 nM and 70000 nM, respectively.
Regarding `Clc1cccc(C(c2ccc(CN3CCCC3)cc2)n2ccnc2)c1` (racemic), the IC50 amounted to 1420 nM in the assay on Plasmodium falciparum [1], 110 nM in the assay on Plasmodium falciparum [2], 200 nM in the assay on Plasmodium falciparum [3] and 1030 nM in the assay on Plasmodium falciparum [4]. For the same compound, the minimal inhibitory concentration (MIC) against Cryptococcus neoformans, against Aspergillus fumigatus [5], in the assay with Candida albicans, against Candida parapsilosis, against Aspergillus flavus and against Pichia kudriavzevii was over 32 µg/mL in each case.
Take `Clc1cccc(C(c2ccccc2)(c2ccc(CN3CCCC3)cc2)n2ccnc2)c1` (racemic): the IC50 was found to be 230 nM in the assay with Plasmodium falciparum [1], 47 nM with Plasmodium falciparum [2], 23 nM in the assay on Plasmodium falciparum [3] and 100 nM in the assay with Plasmodium falciparum [4].
For `CCN(CC)Cc1ccc(C(c2ccccc2Cl)n2cncn2)cc1` (racemic), the IC50 with Plasmodium falciparum [1] was over 10000 nM; in the assay with Plasmodium falciparum [2], over 10000 nM; in the assay with Plasmodium falciparum [3] it was 790 nM; in the assay with Plasmodium falciparum [4], over 10000 nM.
Regarding `Clc1ccc(C(Cn2ccnc2)(c2ccccc2)c2ccc(CN3CCCC3)cc2)cc1` (racemic), the concentration for half-maximal inhibition (IC50) in the assay with Plasmodium falciparum [2] worked out at 750 nM; in the assay with Plasmodium falciparum [3], 520 nM.

Values taken from ChEMBL document CHEMBL1141393 (J Med Chem, 2007).
